The source of these data is PMC4750397 (Clinical lung cancer, 2015).

Structures are written as SMILES. Marks after values point to notes of the source that are not given here.

Series [1] can be described thus: Plasma pharmacokinetics of regorafenib, M-2 and M-5. Format: in vivo, human. As to conditions: for tmax,md: median (range printed in cell); for tmax,md / AUC(0–24)md Ratio (90% CI) / Cmax,md Ratio (90% CI): n = 6; for AUC(0–24)md Ratio (90% CI) / Cmax,md Ratio (90% CI): Ratio = C2D1:C1D21; for coefficient of variation (CV) in AUC and Cmax: high variability, Table 3A; for Tmax: human, plasma, oral.

Series [2] in a line: Plasma pharmacokinetics of pemetrexed. It is filed as in vivo, human.
Series [3] concerns patients with advanced nsNSCLCs. Conditions: single agent, ref [7], cited from earlier work.
Series [4] has as its system human xenograft models. As to conditions: greater potency than sorafenib; ref [4], [22]; cited from earlier work.
Series [5] has as its system patients with NSCLCs. Conditions: sunitinib added to cisplatin and pemetrexed; ref [20]; cited from earlier work.
Where [6] appears, read: C2 D1, following cisplatin and pemetrexed.
[7] abbreviates: Cycle 1, Day 1 vs Cycle 2, Day 1.

As a reminder, the Tmax is the time at which the peak concentration occurs.

On to `CNC(=O)c1cc(Oc2ccc(NC(=O)Nc3ccc(Cl)c(C(F)(F)F)c3)c(F)c2)cc[n+]1[O-]` [M-2], for which, in series [1] (C1 D21, regorafenib alone), the “tmax,md” value is recorded as 4.0 (2–24 ^a) hours. In addition, the “tmax,md” value in series [1] (setting [6]) was 5.0 (0–6.25 ^a) hours. In series [1] (C2 D1 vs C1 D21), the “mean AUC(0–24)md lower following the pemetrexed and cisplatin treatment” value was determined as 48%; the “mean Cmax,md lower following the pemetrexed and cisplatin treatment” value was 38%. Also, in series [1], the “AUC(0–24)md Ratio (90% CI)” value is 0.52 (0.44–0.61); the “Cmax,md Ratio (90% CI)” value is 0.62 (0.46–0.83); the “coefficient of variation (CV) in AUC and Cmax” value is above 75%.
On to `NC(=O)c1cc(Oc2ccc(NC(=O)Nc3ccc(Cl)c(C(F)(F)F)c3)c(F)c2)cc[n+]1[O-]` [M-5], for which the “tmax,md” value in series [1] (C1 D21, regorafenib alone) is listed as 16.0 (4–24 ^a) hours. Besides, the “tmax,md” value in series [1] (setting [6]) is 5.0(0–6.25 ^a) hours. Further, the “Mean AUC(0–24)md and Cmax,md on both days (in words)” value in series [1] (C2 D1 vs C1 D21) is on record as “comparable”. In series [1], the “AUC(0–24)md Ratio (90% CI)” value is on record as 0.84 (0.67–1.06); the “Cmax,md Ratio (90% CI)” value is on record as 0.97 (0.78–1.20); the “coefficient of variation (CV) in AUC and Cmax” value was above 150%.
For `Nc1nc2[nH]cc(CCc3ccc(C(=O)N[C@@H](CCC(=O)O)C(=O)O)cc3)c2c(=O)[nH]1` [Pemetrexed], in series [2] (setting [7]), the “mean AUC on both days (in words)” value was “comparable” and the “mean pemetrexed concentration, before vs after regorafenib (in words)” value is recorded as “no difference”. For the same compound, the “Cmax after regorafenib (in words)” value in series [2] (Cycle 2, Day 1 vs Cycle 1, Day 1) is “slightly increased”. Moreover, in series [2] (Ratio = C2D1:C1D1, n = 8), the “AUC(0–infinity) Ratio (90% CI)” value was 1.05 (0.96–1.16) and the “Cmax Ratio (90% CI)” value is 1.20 (1.05–1.35).
On to `CNC(=O)c1cc(Oc2ccc(NC(=O)Nc3ccc(Cl)c(C(F)(F)F)c3)c(F)c2)ccn1` [Regorafenib, reference compound], for which the “Mean AUC(0–24)md and Cmax,md on both days (in words)” value in series [1] (C2 D1 vs C1 D21) is “comparable”. Besides, in series [1], the “AUC(0–24)md Ratio (90% CI)” value was 0.93 (0.77–1.12), the “Cmax,md Ratio (90% CI)” value was 1.03 (0.70–1.51) and the Tmax was determined as 4 h. In series [1] (60 mg/day), the Tmax was 4 h. In series [3] (4 of 18 evaluable patients), the “patients with stable disease for ≥12 weeks” value is listed as 22%. Besides, in series [3] (23 patients), the “Grade 4 or 5 toxicities” value is listed as “no Grade 4 or 5 toxicities were observed”. Besides, the “progression-free survival of one patient” value in series [3] (one patient) is reported as around 40 weeks. For the same compound, the “tumor reduction in one patient” value in series [3] (two non-consecutive measurements) is given as above 30%. The “potency in human xenograft models relative to sorafenib” value in series [4] is ~ 3 times.
Take `CCN(CC)CCNC(=O)c1c(C)[nH]c(/C=C2\C(=O)Nc3ccc(F)cc32)c1C` [sunitinib]: the myelosuppression entry in series [5] is on record as “substantial myelosuppression”.
